Test results as given in patent US6090824A, “Therapeutic neurokinin receptor antagonist compounds” (Zeneca Limited, priority 1995, dated 2000).

Assays:
human NK1 receptor = molecular target: T1, human NK1 receptor (Homo sapiens, UniProt P25103); test: SP Receptor Binding Assay (Test A); conditions: human NK1 receptor in MEL cells
T1 construct: expressed in transfected cells; host or cells: Mouse Erythroleukemia (MEL) cells
Text: SP Receptor Binding Assay (Test A)
The human NK1 receptor was isolated and characterized as described in: B. Hopkins, et al. "Isolation and characterization of the human lung NK1 receptor cDNA" Biochem. Biophys. Res. Comm., 1991, 180, 1110-1117; and the NK1 receptor was expressed in Mouse Erythroleukemia (MEL) cells using a procedure similar to that described in Test B below.
(§1) The selectivity of a Compound for binding at the NK1 and the NK2 receptors may be shown by determining its binding at other receptors using standard assays, for example, one using a tritiated derivative of NKB in a tissue preparation selective for NK3 receptors.

human NK2 receptor = molecular target: T2, human NK2 receptor (Homo sapiens, UniProt P21452); test: Neurokinin A (NKA) Receptor Binding Assay (Test B); conditions: human NK2 receptor in MEL cells
T2 construct: expressed in transfected cells; host or cells: Mouse Erythroleukemia (MEL) cells
T2 sequence (P21452 1-398): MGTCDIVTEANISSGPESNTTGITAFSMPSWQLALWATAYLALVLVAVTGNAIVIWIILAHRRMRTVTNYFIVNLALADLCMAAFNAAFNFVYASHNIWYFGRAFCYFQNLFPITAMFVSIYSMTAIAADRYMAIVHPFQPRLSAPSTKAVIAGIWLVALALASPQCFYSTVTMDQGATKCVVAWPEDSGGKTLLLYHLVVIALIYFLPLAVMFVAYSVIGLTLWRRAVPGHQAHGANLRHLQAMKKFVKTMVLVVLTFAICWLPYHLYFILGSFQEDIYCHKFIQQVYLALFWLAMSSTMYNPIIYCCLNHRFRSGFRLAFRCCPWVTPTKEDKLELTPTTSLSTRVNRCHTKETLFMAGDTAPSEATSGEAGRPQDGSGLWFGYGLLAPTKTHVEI
Text: Neurokinin A (NKA) Receptor Binding Assay (Test B)
as §1

T1 sequence (P25103 whole entry): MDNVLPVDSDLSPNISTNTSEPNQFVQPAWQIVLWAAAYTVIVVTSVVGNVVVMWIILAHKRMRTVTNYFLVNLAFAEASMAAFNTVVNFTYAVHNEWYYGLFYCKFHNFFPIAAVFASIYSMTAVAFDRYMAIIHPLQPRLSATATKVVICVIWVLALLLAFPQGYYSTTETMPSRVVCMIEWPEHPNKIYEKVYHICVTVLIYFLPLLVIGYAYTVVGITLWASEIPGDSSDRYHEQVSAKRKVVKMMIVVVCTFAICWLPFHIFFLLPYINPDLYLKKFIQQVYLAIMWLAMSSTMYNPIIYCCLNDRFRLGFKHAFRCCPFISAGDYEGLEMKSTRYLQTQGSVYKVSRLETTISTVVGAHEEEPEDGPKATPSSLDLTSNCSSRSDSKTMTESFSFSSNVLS

Ki (human NK1 receptor): 163 nM | Ki (human NK2 receptor): 6.81 nM
Structure (SMILES): CC(=O)NC1(c2ccccc2)CCN(CCC(OC(=O)NCc2ccccc2)c2ccc(Cl)c(Cl)c2)CC1 (centres unmarked) [Example 1, N-Benzyl-3-(4-acetamido4-phenylpiperidino)-1-(3,4-dichlorophenyl)propyl carbamate]
